The target in the assay is Transcription factor Jun (Homo sapiens, UniProt P05412). Briefly: Concentration required to inhibit activator protein-1(AP-1) mediated transcriptional activation in human Jurkat T-cells.

The values that follow come from BindingDB's records for doi:10.1021/jm0001626 (Signal Pharmaceuticals, 2000).

pIC50: −log10 of the molar value.

Transcription factor Jun, sequence (P05412 whole entry): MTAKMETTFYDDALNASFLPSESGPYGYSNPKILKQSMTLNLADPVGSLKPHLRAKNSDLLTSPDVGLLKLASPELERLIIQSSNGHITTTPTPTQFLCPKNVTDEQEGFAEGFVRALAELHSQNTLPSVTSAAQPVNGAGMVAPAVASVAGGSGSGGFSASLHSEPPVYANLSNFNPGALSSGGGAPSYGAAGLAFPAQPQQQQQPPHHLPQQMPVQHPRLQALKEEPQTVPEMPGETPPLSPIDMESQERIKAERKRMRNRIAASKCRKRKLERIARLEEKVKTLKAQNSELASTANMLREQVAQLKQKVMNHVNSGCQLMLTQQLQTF

In turn, `O=C(Nc1cc(C(F)(F)F)cc(C(F)(F)F)c1)c1cnc(C(F)(F)F)nc1C(F)(F)F` [2,4-Bis-trifluoromethyl-pyrimidine-5-carboxylic acid (3,5-bis-trifluoromethyl-phenyl)-amide] gave a pIC50 below 5.00.

`O=C(Nc1cc(C(F)(F)F)cc(C(F)(F)F)c1)c1cc(Cl)nc(Cl)n1` [2,6-Dichloro-pyrimidine-4-carboxylic acid (3,5-bis-trifluoromethyl-phenyl)-amide]: the pIC50 is below 5.00.

In turn, `CCc1nc(Cl)ncc1C(=O)Nc1cc(C(F)(F)F)cc(C(F)(F)F)c1` [2-Chloro-4-ethyl-pyrimidine-5-carboxylic acid (3,5-bis-trifluoromethyl-phenyl)-amide] showed a negative logarithm of the IC50 (pIC50) of 6.52.

The compound `O=C(Nc1cc(C(F)(F)F)cc(C(F)(F)F)c1)c1cnc(Cl)nc1C(F)(F)C(F)(F)F` [2-Chloro-4-pentafluoroethyl-pyrimidine-5-carboxylic acid (3,5-bis-trifluoromethyl-phenyl)-amide] showed a pIC50 of 6.22. Against the preceding compound, the pIC50 is 0.30 log units lower.

In turn, `CCCc1nc(Cl)ncc1C(=O)Nc1cc(C(F)(F)F)cc(C(F)(F)F)c1` [2-Chloro-4-propyl-pyrimidine-5-carboxylic acid (3,5-bis-trifluoromethyl-phenyl)-amide] had a pIC50 of 6.30. The pIC50 values of the last two compounds are within 0.2 log units of each other.

`O=C(Nc1cc(C(F)(F)F)cc(C(F)(F)F)c1)c1cnc(Cl)nc1-c1cccs1` [2-Chloro-4-thiophen-2-yl-pyrimidine-5-carboxylic acid (3,5-bis-trifluoromethyl-phenyl)-amide] had a pIC50 of 5.10. Compared with the last compound, the pIC50 is 1.20 log units lower.

`Cc1cc(C(=O)Nc2cc(C(F)(F)F)cc(C(F)(F)F)c2)nc(Cl)n1` [2-Chloro-6-methyl-pyrimidine-4-carboxylic acid (3,5-bis-trifluoromethyl-phenyl)-amide] showed a negative logarithm of the IC50 (pIC50) below 5.00.

The compound `O=C(Nc1cc(C(F)(F)F)cc(C(F)(F)F)c1)c1cc(C(F)(F)F)nc(Cl)n1` [2-Chloro-6-trifluoromethyl-pyrimidine-4-carboxylic acid (3,5-bis-trifluoromethyl-phenyl)-amide] gave a negative-log IC50 (pIC50) below 5.00.

Consider `O=C(Nc1cc(C(F)(F)F)cc(C(F)(F)F)c1)c1cnc(Cl)nc1` [2-Chloro-pyrimidine-5-carboxylic acid (3,5-bis-trifluoromethyl-phenyl)-amide], for which the pIC50 is 6.52.

On to `N#Cc1ncc(C(=O)Nc2cc(C(F)(F)F)cc(C(F)(F)F)c2)c(C(F)(F)F)n1` [2-Cyano-4-trifluoromethyl-pyrimidine-5-carboxylic acid (3,5-bis-trifluoromethyl-phenyl)-amide], for which the negative logarithm of the IC50 (pIC50) is below 5.00.

For `Cc1ncc(C(=O)Nc2cc(C(F)(F)F)cc(C(F)(F)F)c2)c(C(F)(F)F)n1` [2-Methyl-4-trifluoromethyl-pyrimidine-5-carboxylic acid (3,5-bis-trifluoromethyl-phenyl)-amide], the pIC50 was below 5.00.

Consider `O=C(Nc1cc(C(F)(F)F)cc(C(F)(F)F)c1)c1cnc(-c2ccccc2)nc1` [2-Phenyl-pyrimidine-5-carboxylic acid (3,5-bis-trifluoromethyl-phenyl)-amide], for which the pIC50 is below 5.00.

`O=C(Nc1cc(C(F)(F)F)cc(C(F)(F)F)c1)c1cnc(C(F)(F)F)nc1` [2-Trifluoromethyl-pyrimidine-5-carboxylic acid (3,5-bis-trifluoromethyl-phenyl)-amide] gave a pIC50 below 5.00.

In the case of `O=C(Nc1cc(C(F)(F)F)cc(C(F)(F)F)c1)c1cnc(C(F)(F)F)nc1Cl` [4-Chloro-2-trifluoromethyl-pyrimidine-5-carboxylic acid (3,5-bis-trifluoromethyl-phenyl)-amide], the pIC50 is below 5.00.

`Cc1nc(C(F)(F)F)ncc1C(=O)Nc1cc(C(F)(F)F)cc(C(F)(F)F)c1` [4-Methyl-2-trifluoromethyl-pyrimidine-5-carboxylic acid (3,5-bis-trifluoromethyl-phenyl)-amide] had a negative logarithm of the IC50 (pIC50) below 5.00.

`O=C(Nc1cc(C(F)(F)F)cc(C(F)(F)F)c1)c1ccc(Cl)cc1C(F)(F)F` [N-(3,5-Bis-trifluoromethyl-phenyl)-4-chloro-2-trifluoromethyl-benzamide] gave a negative logarithm of the IC50 (pIC50) below 4.52.

What is called pIC50 is the negative decadic logarithm of the IC50, by convention in mol/L.
